Read-outs that look alike come from different tables or passages of the source.
Legend:
[1] = tested on: reactive oxygen species; format: cell-based, mouse
[2] = tested on: nuOXPHOS transcripts; format: cell-based, mouse
[3] = tested on: C2C12 myotubes
[4] = tested on: cellular dehydrogenase activity
[5] = tested on: mtOXPHOS transcripts; format: cell-based, mouse
[6] = tested on: mitochondrial membrane potential; format: cell-based, mouse
[7] = tested on: cytochrome c; format: cell-based, mouse
[8] = tested on: OXPHOS gene expression; format: cell-based, mouse
[9] = composite Z-score vs mock-treated (DMSO) wells, Conc 20 μM
[10] = composite Z-score vs DMSO, Conc 20 μM
[11] = Table 7, C2C12 myotubes, 48 h, composite Z-score
[12] = normalized composite Z-score vs mock-treated (DMSO) wells, Conc 20 μM
[13] = Conc 20 μM, normalized score vs mock-treated (DMSO) wells
[14] = Table 6, C2C12 myotubes, 48 h, composite Z-score

SMILES: COc1ccc(-c2coc3cc(O)ccc3c2=O)c(OC)c1 [2′-methoxyformonetin]
- ROS [1, 9]: 1.137
- nucOX [2, 9]: −0.561
- Viability [3, 9]: 0.477
- MTT [4, 9]: −1.138
- mitoOX [5, 9]: −0.296
- ΔΨm [6, 9]: 0.388
- cyt c [7, 9]: −1.318
- GE-HTS [8, 9]: −0.484

SMILES: COc1cc(C=CC=O)cc(OC)c1OC [3,4,5-trimethoxycinnamaldehyde]
- ROS [1, 10]: −0.228
- nucOX [2, 10]: −0.724
- Viability [3, 10]: 1.061
- MTT [4, 10]: 1.043
- mitoOX [5, 10]: 0.025
- ΔΨm [6, 10]: 0.647
- cyt c [7, 10]: −0.808
- GE-HTS [8, 10]: −0.523

SMILES: CC1(O)CC2C(CC1O)C2(C)C (stereo not shown) [3,4-dihydroxycarane]
- ROS [1, 10]: 0.697
- nucOX [2, 10]: −0.951
- Viability [3, 10]: 0.448
- MTT [4, 10]: −0.697
- mitoOX [5, 10]: −1.620
- ΔΨm [6, 10]: −0.659
- cyt c [7, 10]: 0.475
- GE-HTS [8, 10]: −1.265

SMILES: C=CC(C1=CC(=O)C(OC)=C(OC)C1=O)c1ccccc1 (stereo not shown) [3,4-dimethoxydalbergione, reference compound]
- ROS [1, 9]: −1.269
- nucOXPHOS Z [2, 11]: −2.94
- nucOX [2, 9]: −2.944
- Viability [3, 9]: −4.588
- MTT [4, 9]: −6.200
- mito-OXPHOS Z [5, 11]: −2.72
- mitoOX [5, 9]: −2.724
- ΔΨm [6, 9]: −3.787
- cyt c [7, 9]: −5.551
- GE-HTS [8, 9]: −3.047

SMILES: CC(=O)c1cc(CC=C(C)C)c(O)c(CC=C(C)C)c1 [3,5-diprenyl-4-hydroxyacetophenone]
- ROS [1, 10]: 1.014
- nucOX [2, 10]: −0.036
- Viability [3, 10]: −0.293
- MTT [4, 10]: −0.582
- mitoOX [5, 10]: 0.538
- ΔΨm [6, 10]: −0.022
- cyt c [7, 10]: −0.220
- GE-HTS [8, 10]: 0.149

SMILES: COc1ccc2c(=O)c(OC)c(-c3ccccc3)oc2c1 [3,7-dimethoxyflavone]
- ROS [1, 12]: 0.652
- nucOX [2, 12]: −1.084
- Viability [3, 12]: −0.730
- MTT [4, 12]: −1.089
- mitoOX [5, 12]: −0.434
- ΔΨm [6, 12]: 0.817
- cyt c [7, 12]: 0.982
- GE-HTS [8, 12]: −0.945

SMILES: CC1CC(O)C2OC1CC1C(CC1(C)C)C2C (stereo not shown) [3,7-epoxycaryophyllan-6-ol]
- ROS [1, 12]: 0.255
- nucOX [2, 12]: −1.203
- Viability [3, 12]: −0.644
- MTT [4, 12]: −1.302
- mitoOX [5, 12]: −0.407
- ΔΨm [6, 12]: −0.461
- cyt c [7, 12]: 0.604
- GE-HTS [8, 12]: −1.018

SMILES: COc1c(-c2ccccc2)oc2c(OC)cccc2c1=O [3,8-dimethoxyflavone]
- ROS [1, 12]: 1.553
- nucOX [2, 12]: 0.315
- Viability [3, 12]: 0.930
- MTT [4, 12]: −0.252
- mitoOX [5, 12]: 0.492
- ΔΨm [6, 12]: −0.103
- cyt c [7, 12]: 0.361
- GE-HTS [8, 12]: 0.399

SMILES: COC(=O)C[C@H]1C(C)(C)[C@@H](O)[C@@H]2CC3=C4CC(O)O[C@@H](c5ccoc5)[C@]4(C)CCC3[C@@]1(C)C2=O (stereo partly drawn) [3,16-dideoxymexicanolide-3beta-diol]
- ROS [1, 12]: 0.587
- nucOX [2, 12]: 0.282
- Viability [3, 12]: −0.384
- MTT [4, 12]: −1.091
- mitoOX [5, 12]: −0.202
- ΔΨm [6, 12]: 0.154
- cyt c [7, 12]: −0.130
- GE-HTS [8, 12]: 0.150

SMILES: CC(=O)OC1CC[C@@]2(C)C(CC[C@H]3[C@@H]4CC=C(C(C)=O)[C@@]4(C)C(=O)C[C@@H]32)C1 (stereo partly shown) [3-acetoxypregn-16-en-12,20-dione]
- ROS [1, 9]: 0.201
- nucOX [2, 9]: −0.775
- Viability [3, 9]: −0.873
- MTT [4, 9]: −0.553
- mitoOX [5, 9]: −0.958
- ΔΨm [6, 9]: −0.216
- cyt c [7, 9]: −0.050
- GE-HTS [8, 9]: −0.885

SMILES: CC(=O)O[C@@H]1CC2C(C)(C)[C@H](O)C=C[C@]2(C)C2CC[C@]3(C)C(=CC(=O)O[C@H]3c3ccoc3)[C@@]21C (stereo partly drawn) [3-alpha-hydroxydeoxygedinin]
- ROS (composite Z-score) [1, 13]: 0.531
- nucOX (composite Z-score) [2, 13]: −1.202
- Viability (composite Z-score) [3, 13]: 0.156
- MTT (composite Z-score) [4, 13]: −0.319
- mitoOX (composite Z-score) [5, 13]: −0.939
- ΔΨm (composite Z-score) [6, 13]: 1.760
- cyt c (composite Z-score) [7, 13]: −0.321
- GE-HTS (composite Z-score) [8, 13]: −1.171

SMILES: C=C1C(N)CC2CC1C2(C)C (stereo not drawn) [3-amino-beta-pinene]
- ROS [1, 12]: 0.421
- nucOX [2, 12]: −1.341
- Viability [3, 12]: −0.108
- MTT [4, 12]: −0.906
- mitoOX [5, 12]: −1.138
- ΔΨm [6, 12]: −0.519
- cyt c [7, 12]: 0.460
- GE-HTS [8, 12]: −1.376

SMILES: CC(=O)C(=Cc1ccccc1)CC(=O)O [3-benzylidenyl-levulinic acid]
- ROS (composite Z-score) [1]: 0.382
- nucOX (composite Z-score) [2]: −0.553
- Viability (composite Z-score) [3]: −0.431
- MTT (composite Z-score) [4]: −0.665
- mitoOX (composite Z-score) [5]: −0.647
- ΔΨm (composite Z-score) [6]: −0.170
- cyt c (composite Z-score) [7]: −0.165
- GE-HTS (composite Z-score) [8]: −0.639

SMILES: CC(=O)O[C@H]1C[C@@H](O)C(C)(C)[C@@H]2C[C@@H](OC(C)=O)[C@]3(C)[C@H](CC[C@@]4(C)[C@@H](c5ccoc5)OC(=O)[C@H]5O[C@@]534)[C@@]12C [3-deacetylkhivorin]
- ROS [1, 12]: 0.619
- nucOX [2, 12]: −0.823
- Viability [3, 12]: 0.398
- MTT [4, 12]: −0.317
- mitoOX [5, 12]: −0.272
- ΔΨm [6, 12]: 0.274
- cyt c [7, 12]: −0.600
- GE-HTS [8, 12]: −0.661

SMILES: COc1ccc2c(c1)OCC(Cc1ccc(OC)c(OC)c1)C2O (stereo not shown) [3-deshydroxysappanol trimethyl ether, reference compound]
- ROS Zscore [1, 14]: 1.3852
- ROS [1, 12]: 1.385
- nucOX [2, 12]: 0.557
- Viability [3, 12]: 0.416
- MTT [4, 12]: −0.416
- mitoOX [5, 12]: 0.224
- ΔΨm [6, 12]: 0.033
- cyt c [7, 12]: −0.948
- GEHTS_Zscore [8, 14]: 1.970
- GE-HTS [8, 12]: 0.465

— patent US20090143279A1 (priority 2007, published 2009)
